{"source": "patent US20090311716A1", "about": "“METHODS TO TREAT OR PREVENT HORMONE-RESISTANT PROSTATE CANCER USING siRNA [sequence] FOR PROTOCADHERIN-PC, OR OTHER INHIBITORS OF PROTOCADHERIN-PC EXPRESSION OR ACTIVITY” (THE TRUSTEES OF COLUMBIA UNIVERSITY IN THE CITY OF NEW YORK, priority 2005, published 2009)", "assay_type_in_all_cases": "cell-based, human", "key": {"[1]": {"tested_on": "LNCaP cells", "assay": "Flow cytometry of propidium iodide stained cells, sub-G0 peak (cell death)", "conditions": "for dead cells (sub-G0 peak): LNCaP in androgen-free medium 5 days, then siRNA transfection a further 48 hrs", "experimental": "FIG. 18. Selective killing of LNCaP cells grown in androgen-free medium by PCDH-PC siRNA. LNCaP cells grown in normal medium or in androgen-free medium (phenol red-free RPMI supplemented with CS-FBS) for 5 days were transfected with PCDH-PC siRNA (#181) or with lamin siRNA, as indicated for a further 48 hrs. Cells were collected, fixed and stained with propidium iodide and were analyzed by flow cytometry. Bars represent the % population of cells in the sub-G0 peak considered to be apoptotic. The bars are averages based on two measurements under each condition. No siRNAs were untransfected cells.\nsiRNAs and Transfection of Cultured Human Prostate Cancer Cells. Commercial siRNAs targeting human β-catenin and lamin A were purchased from Dharmacon, Inc. (Chicago, Ill.). Three different siRNAs targeting PCDH-PC were designed using the siRNA Target Finder software program available through Ambion, Inc. (Austin, Tex.). The anti-PCDH-PC siRNAs targeted sequences at position 3043-3062 (#181; SEQ ID NO:4; FIG. 29), 3098-3117 (#190; SEQ ID NO:6; FIG. 31) or 3345-3364 (#208; SEQ ID NO:7; FIG. 32) on the PCDH-PC mRNA. The 21 bp siRNAs were constructed using the 19 bp core sequences described above with 2 nucleotide UU overhangs and these siRNAs were produced and provided by Ambion, Inc. siRNAs were transfected or co-transfected (with other expression vectors as described) into LNCaP cells at 100 nM final concentrations using Lipofectamine 2000 transfection reagent (Invitrogen Life Technologies, Inc.) in serum-free medium as instructed by the manufacturer. 48 hrs after transfection, cells were harvested and extracted for protein or RNA as described below."}, "[2]": {"tested_on": "PCDH-PC", "assay": "Western blot of myc-tagged PCDH-PC in LNCaP cells co-transfected with pPCDH-PC-myc and siRNA", "conditions": "siRNA 100 nM co-transfected with pPCDH-PC-myc, 48 hrs; listed as #181", "from_the_text": "FIGS. 4A-4B. siRNAs against PCDH-PC suppress PCDH-PC expression and NE transdifferentiation of LNCaP cells. FIG. 4A. LNCaP cells were transfected with the pPCDH-PC-myc expression vector and were co-transfected with siRNA against human lamin or siRNAs 181, 190 or 208 designed to suppress PCDH-PC expression. A Western blot made against protein extracts from these cells were probed with anti-myc (Top Panel) to identify expression of the 110 kd PCDH myc-tagged protein, anti-β-actin (Middle Panel) or anti-human E-cadherin (Bottom Panel). FIG. 4B. A repeated experiment that includes control LNCaP cells (no transfection) or pCMV-PCDH-myc transfected LNCaP cells co-transfected with siRNAs against lamin or against PCDH-PC (181, 190 or 208). The Western blot was probed for NSE expression (Top Panel) or for β-actin expression (Bottom Panel).\nExpression Vectors, Transfection Protocols and Luciferase/β-Glactosidase Assays. PCDH-PC cDNA was inserted into the mammalian expression vectors pcDNA3 (Invitrogen Life Technologies, Inc., Carlsbad, Calif.) or into pCMV-myc (BD Biosciences, Clontech, Inc., Palo Alto, Calif.) so that the PCDH-PC product generated from this vector (pPCDH-PC-myc) has a C-terminal myc tag. An expression vector containing cDNA encoding a mutated (stabilized) form of human β-catenin (Tetsu and McCormick, 1999) was used. A dominant-negative Tcf expression vector used was previously described (Chen et al., 2001). The Tcf-sensitive reporter vector, pTOP and a CMV-promoted β-galactosidase expression vector were obtained from Upstate Biotechnology, Inc. Transfections used for protein or RNA extractions were done in 35 cm^2 dishes with cells plated at 50% density 12-16 hrs prior. […] Luciferase activity in cell extracts was measured using the Luciferase Assay System of Promega, Inc. (Madison, Wis.). β-galactosidase activity was also measured in the same cell extracts using the β-galactosidase Enzyme Assay System of Promega, Inc. All experiments involving luciferase reporter vectors were done in triplicate for each point. […]"}, "[3]": {"tested_on": "Tcf-sensitive reporter pTOP (wnt signaling)", "assay": "Tcf-sensitive pTOP luciferase reporter assay (wnt signaling) in LNCaP cells", "conditions": "7 days in androgen-free medium", "from_the_text": "FIGS. 5A-5C. siRNAs against PCDH-PC suppress PCDH-PC expression, TCF-mediated transcription and NE transdifferentiation in LNCaP cells grown in androgen-free medium. FIG. 5A. RNAs extracted from LNCaP cells grown in normal medium (Control) or in androgen-free medium (CS-FBS, None) were compared toRNAs from LNCaP cells grown in androgen-free medium transfected with siRNAs against PCDH-PC (181, 190 and 208) or siRNA against lamin by RT-PCR using primers specific for PCDH-PC (Top Panel) or β-actin (Bottom Panel). PCR reaction products were electrophoresed on agarose gels and were visualized after ethidium bromide staining under UV light. FIG. 5B. LNCaP cells cultured in normal medium (Control) were compared to LNCaP cells grown in androgen-free medium for 7 days without or with transfection with siRNA 181 against PCDH-PC or siRNA against lamin for expression of luciferase from the TCF-sensitive reporter pTOP for normalized luciferase activity. FIG. 5C. […]\nExpression Vectors, Transfection Protocols and Luciferase/β-Glactosidase Assays. […] Luciferase activity in cell extracts was measured using the Luciferase Assay System of Promega, Inc. (Madison, Wis.). β-galactosidase activity was also measured in the same cell extracts using the β-galactosidase Enzyme Assay System of Promega, Inc. All experiments involving luciferase reporter vectors were done in triplicate for each point."}, "[4]": {"tested_on": "Akt", "assay": "Western blot of phosphorylated Akt / MDM2 in LNCaP cells in androgen-free medium", "conditions": "androgen-free medium 5 days then transfected 2 days", "from_the_text": "FIG. 15. Proteins were extracted from untransfected LNCaP cells maintained in androgen free medium for 7 days (CS-FBS Control) or from 7-day androgen-free LNCaP cells that were transfected for 48 hrs with β-catenin siRNA (CS-FBS+beta-Cat siRNA) or dominant negative Tcf (CS-FBS+DN-Tcf) or PCDH-PC siRNA 181 (CS-FBS+PCDH-PC siRNA) or lamin siRNA (CS-FBS+lamin siRNA). Equal aliquots of protein were electrophoresed on a polyacrylamide gel and then blotted onto a PVDF filter to produce a Western blot. The same blot was probed with an antibody against Akt protein (top panel) or against phosphorylated Akt (ser 473) (second panel) or with an antibody against MDM2 protein (third panel) or phosphorylated MDM2 protein (bottom panel). […] The blockade of Akt phosphorylation by PCDH-PC siRNA could be involved in the process through which this molecule induces the death of prostate cancer cells under androgen-free conditions. […]\nPreparation of cell extracts and western blots. Cells were harvested and protein extracts prepared, quantified and used to prepare Western blots as previously described (Example 1; Yang et al., 2005). […] Recombinant Wnt-1 protein (HA-tagged) was detected with anti-HA antibody (Clontech Inc., Mountain View, Calif.). Antibody binding to the Western blot was detected as previously described (Yang et al., 2005). […]"}}, "note": "Entries after “also recorded” stand apart in the source; their conditions may differ.", "data": [{"substance": "siRNA #181: 21 bp siRNA targeting PCDH-PC mRNA position 3043-3062, 19 bp core with UU overhangs (SEQ ID NO:4) (AAGCATTGAAGCACCAGTGAC; listed as DNA, further chemistry not given here)", "values": [{"measurement": "selectivity of cell death induction, androgen-free versus normal medium", "setting": "[1]; LNCaP", "result": "specific to cells grown in androgen free medium, not in normal medium"}, {"measurement": "dead cells (sub-G0 peak)", "setting": "[1]; listed as #181", "result": "approximately 58%"}, {"measurement": "dead cells (sub-G0 peak)", "setting": "[1]; listed as PCDH-PC siRNA", "result": 58, "unit": "%"}, {"measurement": "dead cells (sub-G0 peak)", "setting": "[1]; listed as siRNA against PCDH-PC", "result": 58, "unit": "%"}, {"measurement": "cell death relative to untransfected cells or cells transfected with lamin siRNA", "setting": "[1]; LNCaP, androgen-free medium 7 days", "result": "greater than 4 ×"}, {"measurement": "expression of myc-tagged PCDH-PC polypeptide", "setting": "[2]", "result": "suppressive effects; also recorded: most effective"}, {"measurement": "induced luciferase expression from pTOP reporter (wnt signaling)", "setting": "[3]", "result": "completely suppressed"}, {"measurement": "Akt phosphorylation (pAkt; and MDM2 phosphorylation)", "setting": "[4]", "result": "reduced"}]}]}
